Patent US10669545B2, “Tumor cell malignant transformation suppressor and anti-tumor agent” (JAPAN SCIENCE AND TECHNOLOGY AGENCY, priority 2015, dated 2020)

Assays:
Format in all cases: cell-based, human
A375 cells = assay: Annexin V-positive cells, A375 cells; conditions: UO126 10 μM or oxaliplatin 20 μM for 48 hours, compared with PLX4032 case
Experimental: The percentage of Annexin V-positive cells was measured as follows. First, FITC labeled Annexin V (manufactured by MBL, Nagoya, Japan) and Hoechst33342 were added to each cell and incubated for 40 minutes. Next, a stained state of the incubated cells was analyzed by using DAPI filter and FITC filter of an imaging cytometer, “In Cell Analyzer 2000” (manufactured by GE healthcare). Percentage (%) of […] was determined by In Cell Analyzer Workstation 3.7 (manufactured by GE healthcare). The statistical difference was determined by the Tukey's multiple comparisons of means test (**: P<0.01, *: P<0.05).
Next, the influence of knockdown of endogenous ZIC5, and PDGFD and ITGA6, which are downstream factors, on a decrease in cell proliferation by PLX4032 and induction of apoptosis was examined. […] Next, the treated cells were added to FITC labeled Annexin V (manufactured by MBL, Nagoya, Japan) and Hoechst33342 and incubated for 40 minutes. […]
(§1) The statistical difference was determined by the Tukey's multiple comparisons of means test (**: P<0.01, *: P<0.05).

[1] = system: stably Zic5 gene-expressed line (SK-MEL-28 cells); assay: Annexin V-positive cells, stably Zic5 gene-expressed line; conditions: WP1066 10 μM for 24 hours; not shown
Experimental: PLX4032 was dissolved in DMSO to be used as a solution, and a line added to an equal amount of DMSO (DMSO treatment) was used as a control. The result of a relative cell number (n=3) in which the number of cells of the cells in which the stably Flag-expressed line was treated with PLX4032 (in the drawing, “+” on the “PLX4032” section, the same applies to the following examples), or the cells treated with DMSO (in the drawing, “−” on the “PLX4032” section, the same applies to the following examples) was set to 1 is shown in FIG. 30. The statistical difference was determined by the Tukey's multiple comparisons of means test (**: P<0.01, *: P<0.05). […]
The percentage of Annexin V-positive cells was measured as follows. […] Next, a stained state of the incubated cells was analyzed by using DAPI filter and FITC filter of an imaging cytometer, “In Cell Analyzer 2000” (manufactured by GE healthcare). Percentage (%) of […] was determined by In Cell Analyzer Workstation 3.7 (manufactured by GE healthcare). The statistical difference was determined by the Tukey's multiple comparisons of means test (**: P<0.01, *: P<0.05).
as §1

ZIC5 = assay: Western blotting of ZIC5; conditions: A375 cells; 24 hours; FAK inhibitor I 0-5 μM, WP1066 0-4 μM, IL-6 0-20 ng/mL
Experimental: The expression level of PDGFD gene and Zic5 gene in the obtained cells was measured by western blotting using GAPDH as an internal control. Western blotting was performed according to a method of Kanemaru et al. (refer to NPL 13) using anti-ZIC5 antibody (manufactured by Aviva systems biology), anti-PDGFD antibody (manufactured by Santa Cruz), and anti-GAPDH antibody (manufactured by Cell Signaling).
(§2) A375 cells were treated in a medium in which a concentration of a FAK inhibitor I (manufactured by Calbiochem) was 0, 1, 2.5, or 5 μM for 24 hours, and the level of ZIC5, pro-PDGFD, pERK, and β-actin was measured by western blotting. Western blotting was performed in the same manner as above except that anti-ZIC5 antibody (manufactured by Aviva systems biology), anti-PDGFD antibody (manufactured by Santa Cruz), anti-pERK antibody (manufactured by Cell Signaling), and anti-β-actin antibody (manufactured by Sigma) were used.
A375 cells were treated in a medium in which a concentration of the Stat3 inhibitor, WP1066 (manufactured by Santa Cruz, Dallas, Tex.) was 0, 1, 1.5, 2, 2.5, 3, or 4 μM for 24 hours, and then western blotting was performed to assess the level of ZIC5, pro-PDGFD, pSTAT3, STAT3, and GAPDH. […]

pro-PDGFD = assay: Western blotting of pro-PDGFD; conditions: A375 cells; 24 hours; FAK inhibitor I 0-5 μM, WP1066 0-4 μM
From the text: Because phosphorylation of focal adhesion kinase (FAK), which is activated at Focal adhesion, has been associated with melanoma malignancy (refer to NPL 19), FAK change by ZIC5 was examined. Furthermore, focusing on Integrin, alpha 6 (ITGA6) and platelet-derived growth factor D (PDGFD) among the Focal adhesion-related genes in the altered genes by Zic5 knockdown, change in cells was examined. Specifically, a level of phosphorylated FAK (pFAK), total FAK (FAK), ITGA6, pro-PDGFD, and β-actin in A375 cells transfected with siZIC5 or siNeg was assessed by western blotting. Western blotting was performed in the same manner as above except that anti-pFAK antibody (manufactured by Signalway Antibody), anti-FAK antibody (manufactured by Acris), anti-β-actin antibody (manufactured by Sigma), anti-ITGA6 antibody (manufactured by GeneTex), and anti-PDGFD antibody (manufactured by Santa Cruz) were used.
The expression level of PDGFD gene and Zic5 gene in the obtained cells was measured by western blotting using GAPDH as an internal control. […]
A375 cells were treated in a medium in which a concentration of a FAK inhibitor I (manufactured by Calbiochem) was 0, 1, 2.5, or 5 μM for 24 hours, and the level of ZIC5, pro-PDGFD, pERK, and β-actin was measured by western blotting. […]

total STAT3 (STAT3) = assay: Western blotting of total STAT3; conditions: A375 cells; 24 hours; WP1066 0-4 μM, IL-6 0-20 ng/mL
Experimental: (§3) A375 cells were treated in a medium in which a concentration of the Stat3 inhibitor, WP1066 (manufactured by Santa Cruz, Dallas, Tex.) was 0, 1, 1.5, 2, 2.5, 3, or 4 μM for 24 hours, and then western blotting was performed to assess the level of ZIC5, pro-PDGFD, pSTAT3, STAT3, and GAPDH. Western blotting was performed in the same manner as above except that anti-ZIC5 antibody (manufactured by Aviva systems biology), anti-PDGFD antibody (manufactured by Santa Cruz), anti-pSTAT3 antibody (manufactured by Cell Signaling), STAT3 antibody (manufactured by BD Biosciences), and anti-GAPDH antibody (manufactured by Cell Signaling) were used.
as §3, with “Interleukin-6 (IL-6)” for “the Stat3 inhibitor, WP1066”, “Novus Biologicals)” for “Santa Cruz, Dallas, Tex.)”, “10,” for “1, 1.5, 2, 2.5, 3,”, “20 ng/mL” for “4 μM”, “anti-pERK” for “anti-PDGFD”, “Cell Signaling),” for “Santa Cruz),”

[2] = system: phosphorylated Stat3 (pStat3); assay: Western blotting of phosphorylated Stat3; conditions: A375 cells; 24 hours; WP1066 0-4 μM, IL-6 0-20 ng/mL
Experimental: as §3
as §3, with “Interleukin-6 (IL-6)” for “the Stat3 inhibitor, WP1066”, “Novus Biologicals)” for “Santa Cruz, Dallas, Tex.)”, “10,” for “1, 1.5, 2, 2.5, 3,”, “20 ng/mL” for “4 μM”, “anti-pERK” for “anti-PDGFD”, “Cell Signaling),” for “Santa Cruz),”

[3] = system: stably Zic5 gene-expressed line (SK-MEL-28 cells); assay: Transwell Migration Assay, stably Zic5 gene-expressed line; conditions: treated or non-treated with ROCK inhibitor
Experimental: Specifically, the stably Zic5 gene-expressed line and the stably Flag-expressed line were seeded in a 24-well plate into which an insert with 8-μm sized pores (manufactured by BD Biosciences) was put and were cultured in RPMI 1640 medium containing 10% FBS, and then the number of migrated cells was counted.
The influence of suppressing MLC2 phosphorylation on migration ability of cells was analyzed. Specifically, Transwell Migration Assay was performed in the same manner as above with the stably Zic5 gene-expressed line and the stably Flag-expressed line in a state of being treated or non-treated with a ROCK inhibitor (Y27632), and then the number of migrated cells was counted.
The number of migrated cells was normalized to a total number of viable cells. A relative cell number (n=3) in which the number of migrated cells transfected with siNeg#1 of each cell was set to 1 is shown in FIG. 29. The statistical difference was determined by the Tukey's multiple comparisons of means test (**: P<0.01, *: P<0.05).

[4] = system: phosphorylated MLC2 (ppMLC2); assay: Western blotting of phosphorylated MLC2; conditions: stably Zic5 gene-expressed line treated with ROCK inhibitor; not shown
Experimental: Myosin light chain 2 (MLC2) is known as an important factor for enhancing melanoma motility. It is known that MLC2 is activated through phosphorylation and enhances cell motility by enhancing actomyosin contraction (refer to NPLs 14 and 15). A protein level of phosphorylated MLC2 (ppMLC2), MLC2, and GAPDH of each cell was measured by western blotting. Western blotting was performed according to a method of Kanemaru et al. (refer to NPL 13) using anti-ppMLC2 antibody, anti-MLC2 antibody, and anti-GAPDH antibody (all manufactured by Cell Signaling).
Motility of melanoma cells in a case of siRNA-mediated knockdown of endogenous Zic5 gene was examined by performing Transwell Migration Assay. Specifically, SK-MEL-28 cells and A375 cells, which are melanoma cell lines, were transfected with siZIC5#1, siZIC5#2, siNeg#1, or siNeg#2 described in Table 2 in the same manner as Example 1. In the same manner as above, Transwell Migration Assay was performed with the cells transfected with each siRNA, and then the number of migrated cells was counted. […] The protein level of ppMLC2, MLC2, and GAPDH in the cells in which SK-MEL-28 cells were transfected with siRNA was measured by western blotting. The result of western blotting with SK-MEL-28 cells is shown at the bottom of FIG. 9.
The protein level of ppMLC2, MLC2, and GAPDH in each cell was measured by western blotting in the same manner as above.

[5] = system: phosphorylated ERK1/2 (Thr202/204) (pERK); assay: Western blotting of phosphorylated ERK1/2; conditions: A375 cells; 24 hours; FAK inhibitor I 0-5 μM, IL-6 0-20 ng/mL
Experimental: Western blotting was performed in the same manner as above except that anti-pAKT antibody (manufactured by Cell Signaling), anti-AKT antibody (manufactured by Cell Signaling), anti-pERK antibody (manufactured by Cell Signaling), anti-ERK antibody (manufactured by Cell Signaling), and anti-β-actin antibody (manufactured by Sigma) were used.
vemR-1 to 3 cells and HT144 cells were treated with DMSO or PLX4032 solution (which was dissolved in DMSO to become 5 μM) for 48 hours, and the level of pAKT, AKT, pERK, ERK, and β-actin of these cells was assessed by western blotting in the same manner as Example 8.
as §2
A375 cells were treated in a medium in which a concentration of Interleukin-6 (IL-6) (manufactured by Novus Biologicals) was 0, 10, or 20 ng/mL for 24 hours, and then western blotting was performed to assess the level of ZIC5, pro-PDGFD, pSTAT3, STAT3, and GAPDH. […]

N#CC(=C(/N)Sc1ccccc1N)/C(C#N)=C(/N)Sc1ccccc1N [UO126]
percentage of Annexin V-positive cells, drug treatment of siZIC5- vs siNeg-transfected cells (A375 cells): the same results were obtained

C[C@H](NC(=O)/C(C#N)=C/c1cccc(Br)n1)c1ccccc1 [WP1066, reference compound]
suppression of apoptosis by Zic5 [1]: completely suppressed | expression level of ZIC5 (ZIC5): decreased in accordance with a concentration of the Stat3 inhibitor | expression level of pro-PDGFD (pro-PDGFD): decreased in accordance with a concentration of the Stat3 inhibitor | level of STAT3 (total STAT3 (STAT3)): not changed | expression level of pSTAT3 [2]: decreased in accordance with a concentration of the Stat3 inhibitor

C[C@@H](N)[C@H]1CC[C@H](C(=O)Nc2ccncc2)CC1 [Y27632, reference compound]
increase of migrated cells by Zic5 gene overexpression [3]: partially suppressed | band of ppMLC2 [4]: hardly detected

O=C1[O][Pt]2([NH][C@@H]3CCCC[C@H]3[NH]2)[O]C1=O [oxaliplatin]
percentage of Annexin V-positive cells, drug treatment of siZIC5- vs siNeg-transfected cells (A375 cells): the same results were obtained

IL-6: Interleukin-6 (manufactured by Novus Biologicals)
level of pERK [5]: not changed | expression level of ZIC5 (ZIC5): increased in accordance with a concentration of the IL-6 | level of STAT3 (total STAT3 (STAT3)): not changed | expression level of pSTAT3 [2]: increased in accordance with a concentration of the IL-6
